In brackets after ≈: the same amount, converted by molar mass. Positions of bridges follow the written chain, without caps; N, C: chain ends. Non-standard residues stand in square brackets, D forms with d. Residues, ends and D or L forms follow the SMILES beside them. *: point of attachment. Phenylacetyl(3-Cl) = O=C(Cc1cccc(Cl)c1)*; Benzoyl(2,3-Cl2) = O=C(c1cccc(Cl)c1Cl)*; Benzoyl(3-Cl) = O=C(c1cccc(Cl)c1)*; X23 = O=C(c1c(Cl)cc(Cl)cc1Cl)*; X4 = O=C(c1ccc(Cl)c(Cl)c1)*; Dab = NCC[C@H](N)C(=O)O; Abu = CC[C@H](N)C(=O)O; Dap = NC[C@H](N)C(=O)O; PhAc = O=C(Cc1ccccc1)*
Key:
[1] = Nephrotoxicity in a mouse model (kidney histology score); type: in vivo; parameters: key to Max Overall Kidney Histology Score: product of % score and grade score (grade 1-3); 30 to <45 = moderate; conditions: mice, subcutaneous 12 mg base/kg, 6 doses in one day every 2 h; for Max Overall Kidney Histology Score: kidney ~20 h after last dose, product of percentage score and grade score; for Max Kidney Histology Score: semiquantitative score (SQS) 0 to +5
Description: PMB sulphate (Batch 20120204) and colistin sulphate (Batch 20120719) were supplied by Betapharma (Shanghai Co., Ltd, China). […] At ˜20 h after the last dose, mice were euthanised by inhalation of an overdose of isoflurane. […] The formalin-fixed kidneys were then sent to the Australian Phenomics Network-Histopathology and Organ Pathology (The University of Melbourne, Parkville, VIC, Australia) for histological examination. The samples were examined by a pathologist who was blind to the treatment groups. Lesions were rated as follows: mild acute tubular damage with tubular dilation, prominent nuclei and a few pale […] tubular casts (Grade 1); severe acute tubular damage with necrosis of tubular epithelial cells and numerous tubular casts (Grade 2); acute cortical necrosis/infarction of tubules and glomeruli with or without papillary necrosis (Grade 3). […] The overall kidney histology score was calculated as the product of percentage score and grade score. […] These scores were assigned as follows: […] SQS+3=moderate damage (overall score, 30 to <45); […]

[2] = test system: K. pneumoniae FADDI-KP032; test: In vivo efficacy in mouse blood infection model (neutropenic Swiss mice); conditions: compound, free base 4 mg/kg intravenously 2 h after inoculation, blood at 4 h
Outline: (§1)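 Activity expressed as Δlog10 CFU/mL blood, treated minus saline control, 4 h after a single 4 mg/kg (free base) i.v. dose given 2 h post-infection. Bloodstream infection from i.v. early log-phase inoculum in Swiss mice made neutropenic by i.p. cyclophosphamide on days −4 (150 mg/kg) and −1 (100 mg/kg).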

A. baumannii ATCC 19606 = test: as above; conditions: compound, free base 4 mg/kg intravenously 2 h after inoculation, blood at 4 h
Outline: as §1

P. aeruginosa ATCC 27853 = test: as above; conditions: compound, free base 4 mg/kg intravenously 2 h after inoculation, blood at 4 h
Outline: as §1

Pseudomonas aeruginosa = conditions: for MIC: P. aeruginosa ATCC 27853; for Minimum inhibitory concentration, Pa ATCC 27853: Pseudomonas aeruginosa ATCC 27853; for Minimum inhibitory concentration, Pa ATCC 27853 / Minimum inhibitory concentration, Pa FADDI-PA022 / Minimum inhibitory concentration, Pa FADDI-PA025: broth microdilution in CAMHB; for Minimum inhibitory concentration, Pa FADDI-PA022: Pseudomonas aeruginosa FADDI-PA022; for Minimum inhibitory concentration, Pa FADDI-PA025: Pseudomonas aeruginosa FADDI-PA025
Outline: (§2)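 Broth microdilution, CAMHB, per CLSI M100-S18; compounds as TFA salts; polymyxin B (sulphate) control; read-out MIC.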

Acinetobacter baumannii = conditions: for MIC: A. baumannii ATCC 19606; for Minimum inhibitory concentration, Ab A ATCC 17978: Acinetobacter baumannii ATCC 17978; for Minimum inhibitory concentration, Ab A ATCC 17978 / Minimum inhibitory concentration, Ab ATCC 19606 / Minimum inhibitory concentration, Ab FADDI-AB034: broth microdilution in CAMHB; for Minimum inhibitory concentration, Ab ATCC 19606: Acinetobacter baumannii ATCC 19606; for Minimum inhibitory concentration, Ab FADDI-AB034: Acinetobacter baumannii FADDI-AB034
Outline: as §2

Klebsiella pneumoniae = conditions: K. pneumoniae FADDI-KP032
Outline: as §2

Enterobacter cloacae = conditions: broth microdilution in CAMHB; for Minimum inhibitory concentration, Ec FADDI-EC001: Enterobacter cloacae FADDI-EC001; for Minimum inhibitory concentration, Ec FADDI-EC003: Enterobacter cloacae FADDI-EC003; for Minimum inhibitory concentration, Ec FADDI-EC006: Enterobacter cloacae FADDI-EC006
Outline: as §2

Molecule	Max Overall Kidney Histology Score [1]	Max Kidney Histology Score [1]	Δ log (Treated-Control at 4 h) [2]	Δ log (Treated-Control at 4 h) (A. baumannii ATCC 19606)	Δ log (Treated-Control at 4 h) (P. aeruginosa ATCC 27853)	MIC (Pseudomonas aeruginosa)	Minimum inhibitory concentration, Pa ATCC 27853 (Pseudomonas aeruginosa)	Minimum inhibitory concentration, Pa FADDI-PA022 (Pseudomonas aeruginosa)	Minimum inhibitory concentration, Pa FADDI-PA025 (Pseudomonas aeruginosa)	MIC (Acinetobacter baumannii)	Minimum inhibitory concentration, Ab A ATCC 17978 (Acinetobacter baumannii)	Minimum inhibitory concentration, Ab ATCC 19606 (Acinetobacter baumannii)	Minimum inhibitory concentration, Ab FADDI-AB034 (Acinetobacter baumannii)	MIC (Klebsiella pneumoniae)	Minimum inhibitory concentration, Ec FADDI-EC001 (Enterobacter cloacae)	Minimum inhibitory concentration, Ec FADDI-EC003 (Enterobacter cloacae)	Minimum inhibitory concentration, Ec FADDI-EC006 (Enterobacter cloacae)	nephrotoxicity in the in vivo nephrotoxicity model ([1]; kidney histology ~20 h after last dose)
CC[C@@H]1NC(=O)[C@@H](CC(C)C)NC(=O)[C@H](CCN)NC(=O)[C@@H](NC(=O)[C@H](CN)NC(=O)[C@@H](NC(=O)[C@H](CCN)NC(=O)c2ccc(Cl)c(Cl)c2)[C@@H](C)O)CCNC(=O)[C@H]([C@@H](C)O)NC(=O)[C@H](CCN)NC(=O)[C@H](CCN)NC1=O [Compound 71] (X4-[Dab]T[Dap][Dab][Dab][dL][Abu][Dab][Dab]T; lactam 4-C)	0.0	0 (SQS 0=no significant change (overall score, <1))	−2.98 log10 CFU/mL	−1.82 log10 CFU/mL	−4.04 log10 CFU/mL	0.5 µg/mL (≈ 0.431 µM)	0.5 µg/mL (≈ 0.431 µM)	4 µg/mL (≈ 3.45 µM)	1 µg/mL (≈ 0.862 µM)	0.5 µg/mL (≈ 0.431 µM)	0.25 µg/mL (≈ 0.215 µM)	0.5 µg/mL (≈ 0.431 µM)	0.25 µg/mL (≈ 0.215 µM)	0.5 µg/mL (≈ 0.431 µM)	1 µg/mL (≈ 0.862 µM)	0.25 µg/mL (≈ 0.215 µM)	1 µg/mL (≈ 0.862 µM)	
CC[C@@H]1NC(=O)[C@@H](CC(C)C)NC(=O)[C@H](CCN)NC(=O)[C@@H](NC(=O)[C@H](CN)NC(=O)[C@@H](NC(=O)[C@H](CCN)NC(=O)Cc2ccccc2)[C@@H](C)O)CCNC(=O)[C@H]([C@@H](C)O)NC(=O)[C@H](CCN)NC(=O)[C@H](CCN)NC1=O [Compound 78] (PhAc-[Dab]T[Dap][Dab][Dab][dL][Abu][Dab][Dab]T; lactam 4-C)	0.0	0 (SQS 0=no significant change (overall score, <1))					1 µg/mL (≈ 0.905 µM)	0.5 µg/mL (≈ 0.452 µM)	4 µg/mL (≈ 3.62 µM)		2 µg/mL (≈ 1.81 µM)	4 µg/mL (≈ 3.62 µM)	2 µg/mL (≈ 1.81 µM)		0.25 µg/mL (≈ 0.226 µM)	0.25 µg/mL (≈ 0.226 µM)	0.5 µg/mL (≈ 0.452 µM)	
CC[C@@H]1NC(=O)[C@@H](CC(C)C)NC(=O)[C@H](CCN)NC(=O)[C@@H](NC(=O)[C@H](CN)NC(=O)[C@@H](NC(=O)[C@H](CCN)NC(=O)Cc2cccc(Cl)c2)[C@@H](C)O)CCNC(=O)[C@H]([C@@H](C)O)NC(=O)[C@H](CCN)NC(=O)[C@H](CCN)NC1=O [Compound 79] ({Phenylacetyl(3-Cl)}-[Dab]T[Dap][Dab][Dab][dL][Abu][Dab][Dab]T; lactam 4-C)	5.0	+1 (SQS+1=mild damage (overall score, 1 to <15))			−2.28 log10 CFU/mL	0.5 µg/mL (≈ 0.439 µM)	0.5 µg/mL (≈ 0.439 µM)	1 µg/mL (≈ 0.877 µM)	1 µg/mL (≈ 0.877 µM)	1 µg/mL (≈ 0.877 µM)	0.5 µg/mL (≈ 0.439 µM)	1 µg/mL (≈ 0.877 µM)	1 µg/mL (≈ 0.877 µM)	<0.125 µg/mL	0.25 µg/mL (≈ 0.219 µM)	<0.125 µg/mL	2 µg/mL (≈ 1.75 µM)	
CC[C@@H]1NC(=O)[C@@H](CC(C)C)NC(=O)[C@H](CCN)NC(=O)[C@@H](NC(=O)[C@H](CN)NC(=O)[C@@H](NC(=O)[C@H](CCN)NC(=O)c2cccc(Cl)c2)[C@@H](C)O)CCNC(=O)[C@H]([C@@H](C)O)NC(=O)[C@H](CCN)NC(=O)[C@H](CCN)NC1=O [Compound 88] ({Benzoyl(3-Cl)}-[Dab]T[Dap][Dab][Dab][dL][Abu][Dab][Dab]T; lactam 4-C)	0.0	0 (SQS 0=no significant change (overall score, <1))		−2.46 log10 CFU/mL	−3.33 log10 CFU/mL	0.5 µg/mL (≈ 0.444 µM)	0.5 µg/mL (≈ 0.444 µM)	1 µg/mL (≈ 0.888 µM)	2 µg/mL (≈ 1.78 µM)	2 µg/mL (≈ 1.78 µM)	0.5 µg/mL (≈ 0.444 µM)	2 µg/mL (≈ 1.78 µM)	0.5 µg/mL (≈ 0.444 µM)	0.5 µg/mL (≈ 0.444 µM)	1 µg/mL (≈ 0.888 µM)	0.25 µg/mL (≈ 0.222 µM)	0.5 µg/mL (≈ 0.444 µM)	
CC[C@@H]1NC(=O)[C@@H](CC(C)C)NC(=O)[C@H](CCN)NC(=O)[C@@H](NC(=O)[C@H](CN)NC(=O)[C@@H](NC(=O)[C@H](CCN)NC(=O)c2cccc(Cl)c2Cl)[C@@H](C)O)CCNC(=O)[C@H]([C@@H](C)O)NC(=O)[C@H](CCN)NC(=O)[C@H](CCN)NC1=O [Compound 90] ({Benzoyl(2,3-Cl2)}-[Dab]T[Dap][Dab][Dab][dL][Abu][Dab][Dab]T; lactam 4-C)	0.0	0 (SQS 0=no significant change (overall score, <1))					0.5 µg/mL (≈ 0.431 µM)	2 µg/mL (≈ 1.72 µM)	2 µg/mL (≈ 1.72 µM)		1 µg/mL (≈ 0.862 µM)	2 µg/mL (≈ 1.72 µM)	8 µg/mL (≈ 6.9 µM)		0.5 µg/mL (≈ 0.431 µM)	8 µg/mL (≈ 6.9 µM)	0.25 µg/mL (≈ 0.215 µM)	
CC[C@@H]1NC(=O)[C@@H](CC(C)C)NC(=O)[C@H](CCN)NC(=O)[C@@H](NC(=O)[C@H](CN)NC(=O)[C@@H](NC(=O)[C@H](CCN)NC(=O)c2c(Cl)cc(Cl)cc2Cl)[C@@H](C)O)CCNC(=O)[C@H]([C@@H](C)O)NC(=O)[C@H](CCN)NC(=O)[C@H](CCN)NC1=O [Compound 95] (X23-[Dab]T[Dap][Dab][Dab][dL][Abu][Dab][Dab]T; lactam 4-C)	0.0	0 (SQS 0=no significant change (overall score, <1))					2 µg/mL (≈ 1.67 µM)	4 µg/mL (≈ 3.35 µM)	2 µg/mL (≈ 1.67 µM)		0.25 µg/mL (≈ 0.209 µM)	0.25 µg/mL (≈ 0.209 µM)	0.25 µg/mL (≈ 0.209 µM)		<0.125 µg/mL	0.25 µg/mL (≈ 0.209 µM)	1 µg/mL (≈ 0.837 µM)	
polymyxin B [reference compound]	60.0	+5 (SQS+5=severe damage (overall score, >60))					1 µg/mL	1 µg/mL	1 µg/mL		1 µg/mL	1 µg/mL	0.5 µg/mL		0.25 µg/mL	0.5 µg/mL	0.5 µg/mL	severe nephrotoxicity

— patent USRE48335E1, “Polymyxin derivatives as antimicrobial compounds” (priority 2014, dated 2020)
